Measurements from paper PMC6979384, “Characterization of the plant homeodomain (PHD) reader family for their histone tail interactions” (Epigenetics & Chromatin, 2020).
Values belong to the substance of their own block, whether it stands above or below them. Where no end group is shown, it is not given here.

What was measured:
Assay in all cases: Histone peptide microarray
Assay type in all cases: binding, human
[1] = tested on: DIDO1; settings: arrays performed twice, n of 4; for Array Heatmap value (peptide array binding signal): DIDO1, GST-tagged
Text: (§1) To more comprehensively define the histone interactions of the 31 PHD readers identified from the domain microarray analyses, we probed each on an alternate microarray platform containing a library of 293 synthetic histone peptides with single or combinatorial PTMs (Additional file 2: Figure S4 and Additional file 3: Table S2).
(§2) The 31 GST-tagged PHD readers identified in the PHD finger domain array were expressed and purified as previously. Histone peptide arrays and peptide pulldown assays were conducted as recently described (specifically, the optimized protocol from Petell et al. for the former).
(§3) Supplementary file 13072_2020_328_MOESM3_ESM.xlsx: Additional file 3: Table S2. […] Excel Tab Peptide List is a compiled list of the entire 293 histone peptide library with amino acid sequence ranges. […] Each number corresponds to the peptide number designated in Peptide List. Excel Tab Average Signals is a compiled set of binding data: chromatin reader at 0.5 μM vs. entire 293 peptide library. Data is presented as the average and standard deviation of 4 replicates. The average signals are colored to indicate signal intensity with green being strong and white being weak/low. […] Key: red= stronger relative binding; blue = weaker relative binding. Excel Tab Array info summary is a table summarizing the domains, sequence coverage, array signal range, and noise for each of the GST-tagged readers assayed on the peptide microarrays.

[2] = tested on: PHRF1 (RP); settings: arrays performed twice, n of 4; for Array Heatmap value (peptide array binding signal): PHRF1 (RP), GST-tagged
Text: as §1, §2, §3

[3] = tested on: ING2; settings: arrays performed twice, n of 4; for Array Heatmap value (peptide array binding signal): ING2, GST-tagged
Text: as §1, §2, §3

[4] = tested on: PHF2; settings: arrays performed twice, n of 4; for Array Heatmap value (peptide array binding signal): PHF2, GST-tagged
Text: as §1, §2, §3

[5] = tested on: KDM7A; settings: arrays performed twice, n of 4; for Array Heatmap value (peptide array binding signal): KDM7A, GST-tagged
Text: as §1, §2, §3

[6] = tested on: PHF13; settings: arrays performed twice, n of 4; for Array Heatmap value (peptide array binding signal): PHF13, GST-tagged
Text: as §1, §2, §3

[7] = tested on: SP140L; settings: arrays performed twice, n of 4; for Array Heatmap value (peptide array binding signal): SP140L, GST-tagged
Text: as §1, §2, §3

[8] = tested on: KDM5A (3); settings: arrays performed twice, n of 4; for Array Heatmap value (peptide array binding signal): KDM5A (3), GST-tagged
Text: as §1, §2, §3

[9] = tested on: MORC3 (CW); settings: arrays performed twice, n of 4; for Array Heatmap value (peptide array binding signal): MORC3 (CW), GST-tagged
Text: as §1, §2, §3

[10] = tested on: KDM5A (1); settings: arrays performed twice, n of 4; for Array Heatmap value (peptide array binding signal): KDM5A (1), GST-tagged
Text: as §1, §2, §3

[11] = tested on: BPTF (PB); settings: arrays performed twice, n of 4; for Array Heatmap value (peptide array binding signal): BPTF (PB), GST-tagged
Text: as §1, §2, §3

[12] = tested on: PHF21A; settings: arrays performed twice, n of 4; for Array Heatmap value (peptide array binding signal): PHF21A, GST-tagged
Text: as §1, §2, §3

[13] = tested on: AIRE (PP); settings: arrays performed twice, n of 4; for Array Heatmap value (peptide array binding signal): AIRE (PP), GST-tagged
Text: as §1, §2, §3

[14] = tested on: CHD4 (PPCC); settings: arrays performed twice, n of 4; for Array Heatmap value (peptide array binding signal): CHD4 (PPCC), GST-tagged
Text: as §1, §2, §3

[15] = tested on: ING1; settings: arrays performed twice, n of 4; for Array Heatmap value (peptide array binding signal): ING1, GST-tagged
Text: as §1, §2, §3

[16] = tested on: ING4; settings: arrays performed twice, n of 4; for Array Heatmap value (peptide array binding signal): ING4, GST-tagged
Text: as §1, §2, §3

[17] = tested on: KDM5B (3); settings: arrays performed twice, n of 4; for Array Heatmap value (peptide array binding signal): KDM5B (3), GST-tagged
Text: as §1, §2, §3

[18] = tested on: TRIM66 (PB); settings: arrays performed twice, n of 4; for Array Heatmap value (peptide array binding signal): TRIM66 (PB), GST-tagged
Text: as §1, §2, §3

[19] = tested on: ING3; settings: arrays performed twice, n of 4; for Array Heatmap value (peptide array binding signal): ING3, GST-tagged
Text: as §1, §2, §3

[20] = tested on: MLL5; settings: arrays performed twice, n of 4; for Array Heatmap value (peptide array binding signal): MLL5, GST-tagged
Text: as §1, §2, §3

[21] = tested on: PHF8; settings: arrays performed twice, n of 4; for Array Heatmap value (peptide array binding signal): PHF8, GST-tagged
Text: as §1, §2, §3

[22] = tested on: BAZ2B; settings: arrays performed twice, n of 4; for Array Heatmap value (peptide array binding signal): BAZ2B, GST-tagged
Text: as §1, §2, §3

[23] = tested on: ING5; settings: arrays performed twice, n of 4; for Array Heatmap value (peptide array binding signal): ING5, GST-tagged
Text: as §1, §2, §3

[24] = tested on: CHD5 (PPCC); settings: arrays performed twice, n of 4; for Array Heatmap value (peptide array binding signal): CHD5 (PPCC), GST-tagged
Text: as §1, §2, §3

[25] = tested on: KDM5B (1); settings: arrays performed twice, n of 4; for Array Heatmap value (peptide array binding signal): KDM5B (1), GST-tagged
Text: as §1, §2, §3

[26] = tested on: PHF23; settings: arrays performed twice, n of 4; for Array Heatmap value (peptide array binding signal): PHF23, GST-tagged
Text: as §1, §2, §3

[27] = tested on: DPF2 (PPC2W2); settings: arrays performed twice, n of 4; for Array Heatmap value (peptide array binding signal): DPF2 (PPC2W2), GST-tagged
Text: as §1, §2, §3

[28] = tested on: TAF3; settings: arrays performed twice, n of 4; for Array Heatmap value (peptide array binding signal): TAF3, GST-tagged
Text: as §1, §2, §3

[29] = tested on: CHD5 (PCC); settings: arrays performed twice, n of 4; for Array Heatmap value (peptide array binding signal): CHD5 (PCC), GST-tagged
Text: as §1, §2, §3

[30] = tested on: KDM4C (TTP); settings: arrays performed twice, n of 4; for Array Heatmap value (peptide array binding signal): KDM4C (TTP), GST-tagged
Text: as §1, §2, §3

[31] = tested on: RAG2; settings: arrays performed twice, n of 4; for Array Heatmap value (peptide array binding signal): RAG2, GST-tagged
Text: as §1, §2, §3

[32] = histone peptide array, GST-tagged reader
[33] = histone peptide array, GST-tagged reader, PB = PHD + Bromodomain
[34] = histone peptide array, GST-tagged reader, PPCC = Dual PHD + Dual Chromodomain

- Array Heatmap value (peptide array binding signal) [1]: 0.7417
- Array Heatmap value (peptide array binding signal) [2]: 0.4941
- Array Heatmap value (peptide array binding signal) [3]: 0.6036
- Array Heatmap value (peptide array binding signal) [4]: 0.578
- Array Heatmap value (peptide array binding signal) [5]: 0.3252
- Array Heatmap value (peptide array binding signal) [6]: 0.611
- Array Heatmap value (peptide array binding signal) [7]: 0.3381
- Array Heatmap value (peptide array binding signal) [8]: 0.4384
- Array Heatmap value (peptide array binding signal) [9]: 0.3596
- Array Heatmap value (peptide array binding signal) [10]: 0.4416
- Array Heatmap value (peptide array binding signal) [11]: 0.3429
- Array Heatmap value (peptide array binding signal) [12]: 0.4355
- Array Heatmap value (peptide array binding signal) [13]: 0.4232
- Array Heatmap value (peptide array binding signal) [14]: 0.5868
- Array Heatmap value (peptide array binding signal) [15]: 0.553
- Array Heatmap value (peptide array binding signal) [16]: 0.4387
- Array Heatmap value (peptide array binding signal) [17]: 0.4684
- Array Heatmap value (peptide array binding signal) [18]: 0.6047
- Array Heatmap value (peptide array binding signal) [19]: 0.4727
- Array Heatmap value (peptide array binding signal) [20]: 0.5826
- Array Heatmap value (peptide array binding signal) [21]: 0.3437
- Array Heatmap value (peptide array binding signal) [22]: 0.4631
- Array Heatmap value (peptide array binding signal) [23]: 0.347
- Array Heatmap value (peptide array binding signal) [24]: 0.5319
- Array Heatmap value (peptide array binding signal) [25]: 0.6598
- Array Heatmap value (peptide array binding signal) [26]: 0.5714
- Array Heatmap value (peptide array binding signal) [27]: 0.6849
- Array Heatmap value (peptide array binding signal) [28]: 0.2598
- Array Heatmap value (peptide array binding signal) [29]: 0.8241
- Array Heatmap value (peptide array binding signal) [30]: 0.445
- Array Heatmap value (peptide array binding signal) [31]: 0.2487
Substance: H4K12ac + KQ5,8,16,20: H4 1-23 (SGRGQGGQGLGK(Ac)GGAQRHRQVLR; UniProt P62805 2-24, looked up, variant K5Q K8Q K16Q K20Q)

Substance: H3 (15-34)K27but: H3 15-34
- Array Heatmap signal, DIDO1 [1, 32]: 0.6557
- Array Heatmap signal, PHRF1 (RP) [2, 32]: 0.4393
- Array Heatmap signal, ING2 [3, 32]: 0.591
- Array Heatmap signal, PHF2 [4, 32]: 0.467
- Array Heatmap signal, KDM7A [5, 32]: 0.4288
- Array Heatmap signal, PHF13 [6, 32]: 0.644
- Array Heatmap signal, SP140L [7, 32]: 0.3805
- Array Heatmap signal, KDM5A (3) [8, 32]: 0.4198
- Array Heatmap signal, MORC3 (CW) ([9]; histone peptide array, GST-tagged reader, CW = CW-type Zn-finger): 0.372
- Array Heatmap signal, KDM5A (1) [10, 32]: 0.5054
- Array Heatmap signal, BPTF (PB) [11, 33]: 0.3698
- Array Heatmap signal, PHF21A [12, 32]: 0.4988
- Array Heatmap signal, AIRE (PP) [13, 32]: 0.5516
- Array Heatmap signal, CHD4 (PPCC) [14, 34]: 0.6128
- Array Heatmap signal, ING1 [15, 32]: 0.5341
- Array Heatmap signal, ING4 [16, 32]: 0.489
- Array Heatmap signal, KDM5B (3) [17, 32]: 0.5015
- Array Heatmap signal, TRIM66 (PB) [18, 33]: 0.6313
- Array Heatmap signal, ING3 [19, 32]: 0.4849
- Array Heatmap signal, MLL5 [20, 32]: 0.5529
- Array Heatmap signal, PHF8 [21, 32]: 0.4166
- Array Heatmap signal, BAZ2B [22, 32]: 0.4927
- Array Heatmap signal, ING5 [23, 32]: 0.383
- Array Heatmap signal, CHD5 (PPCC) [24, 34]: 0.5931
- Array Heatmap signal, KDM5B (1) [25, 32]: 0.6712
- Array Heatmap signal, PHF23 [26, 32]: 0.5352
- Array Heatmap signal, DPF2 (PPC2W2) ([27]; histone peptide array, GST-tagged reader, PPC2W2 = Dual PHD + C2W2-type Zn-finger): 0.6771
- Array Heatmap signal, TAF3 [28, 32]: 0.309
- Array Heatmap signal, CHD5 (PCC) ([29]; histone peptide array, GST-tagged reader, PCC = PHD + Dual Chromodomain): 0.8263
- Array Heatmap signal, KDM4C (TTP) ([30]; histone peptide array, GST-tagged reader, TTP = Tandem Tudor domain + PHD): 0.5459
- Array Heatmap signal, RAG2 [31, 32]: 0.2497

- Array Heatmap value (peptide array binding signal) [1]: 0.7478
- Array Heatmap value (peptide array binding signal) [2]: 0.4883
- Array Heatmap value (peptide array binding signal) [3]: 0.5931
- Array Heatmap value (peptide array binding signal) [4]: 0.5897
- Array Heatmap value (peptide array binding signal) [5]: 0.3296
- Array Heatmap value (peptide array binding signal) [6]: 0.6119
- Array Heatmap value (peptide array binding signal) [7]: 0.3664
- Array Heatmap value (peptide array binding signal) [8]: 0.493
- Array Heatmap value (peptide array binding signal) [9]: 0.3567
- Array Heatmap value (peptide array binding signal) [10]: 0.4279
- Array Heatmap value (peptide array binding signal) [11]: 0.3544
- Array Heatmap value (peptide array binding signal) [12]: 0.4264
- Array Heatmap value (peptide array binding signal) [13]: 0.3997
- Array Heatmap value (peptide array binding signal) [14]: 0.5842
- Array Heatmap value (peptide array binding signal) [15]: 0.569
- Array Heatmap value (peptide array binding signal) [16]: 0.4476
- Array Heatmap value (peptide array binding signal) [17]: 0.4322
- Array Heatmap value (peptide array binding signal) [18]: 0.6061
- Array Heatmap value (peptide array binding signal) [19]: 0.5082
- Array Heatmap value (peptide array binding signal) [20]: 0.5446
- Array Heatmap value (peptide array binding signal) [21]: 0.3567
- Array Heatmap value (peptide array binding signal) [22]: 0.4426
- Array Heatmap value (peptide array binding signal) [23]: 0.3459
- Array Heatmap value (peptide array binding signal) [24]: 0.538
- Array Heatmap value (peptide array binding signal) [25]: 0.6488
- Array Heatmap value (peptide array binding signal) [26]: 0.5279
- Array Heatmap value (peptide array binding signal) [27]: 0.6957
- Array Heatmap value (peptide array binding signal) [28]: 0.2522
- Array Heatmap value (peptide array binding signal) [29]: 0.7878
- Array Heatmap value (peptide array binding signal) [30]: 0.4677
- Array Heatmap value (peptide array binding signal) [31]: 0.2496
Substance: Myc-Tag: 1-10 (ILKKATAYIL; Myc epitope tag; UniProt P01106 410-419, looked up, fragment)
